{"source": "patent US20080275134A1", "about": "“Methods for Treatment of Retinal Degenerative Disease” (University of Washington, priority 2005, published 2008)", "key": {"[1]": {"system": "regeneration of vision chromophore (11-cis-retinal)", "assay": "regeneration of 11-cis-retinal in mouse eyes after gavage and light bleach, HPLC retinoid analysis", "format": "in vivo", "conditions": "50 mg/kg, tested in parallel with Ret-NH2", "experimental": "Mice were gavaged with all-trains-Ret-NH2, exposed to intense light for 20 min, and then allowed to recover in the dark for 5 hours. The total amount of different forms of retinoids in all experiments was unchanged. […] For this experiment mice were treated with both 9-cis-retinol and all-trans-Ret-NH2, and bleached after 24 hours, and were allowed to recover for 5 hours in the dark. The presence of 9-cis-retinal was confirmed in treated animals (see peaks 4 and 4′ in FIG. 4A bottom panel, corresponding to syn- and anti-9-cis-retinal oximes, respectively). 11-cis-Retinal was not reduced and/or esterified after treatment with Ret-NH2. […] This supports the idea that Ret-NH2 is a specific inhibitor of the isomerization reaction.\nA. Chromatographic separation of nonpolar retinoids from WT mouse eyes. Mice were gavaged with all-trans-Ret-NH2 24 hours prior to bleaching for 20 min at 150 cd·m^−2 W in the Ganzfeld chamber. Regeneration of 11-cis-retinal was allowed for 24 hours in the dark, and retinoids were extracted from the eye and separated by normal phase HPLC as described in Materials and Methods. The peaks were identified based on elution time and absorption spectra correspond to the following retinoids: 1, all-trans-retinyl esters; 2,2′, syn- and anti-11-cis-retinal oximes; 3, syn-all-trans-retinal oxime; 4,4′, syn- and anti-9-cis-retinal oximes; 5, all-trans-retinol. B. Changes of 11-cis-retinal oxime levels at increasing doses of all-trans-Ret-NH2 during 5 hours or 24 hours of dark adaptation. Square indicates the level of 11-cis-retinal oximes that was present in mice gavaged with vegetable oil without retinoids just after bleaching, and arrow indicates the increase of visual chromophore during 5 hours of dark adaptation. Triangles correspond to the level of 11-cis-retinal found in the mice gavaged with 50 mg/kg of 13-cis-RA. C and D. Single flash ERG responses of increasing intensity for all-trans-Ret-NH2 treated mice and control mice. Serial responses to increasing flash stimuli were obtained for all-trans-Ret-NH2 treated and control mice for selected intensities (C) and plotted as a function of a-wave and b-wave versus varying light intensities under dark-adapted conditions (D) before bleach and at 5 hours and 24 hours after bleach. The dark-adapted mice were bleached with intense constant illumination (150 cd·m^−2) for 20 min. […] SE bars are shown.\nChromatographic separation of nonpolar retinoids from WT mouse eyes. Mice were gavaged with 100 mg/kg of all-trans-Ret-NH2 24 hours prior to bleaching. Mice were next exposed to 500 cd m^−2 for 48 min bleaching in the Ganzfeld chamber. Regeneration of 11-cis-retinal was allowed for 24 hours in the dark, and retinoids were extracted from the eye and separated by normal phase HPLC as described in Materials and Methods. The peaks identified based on elution time and absorption spectra correspond to the following retinoids: 1, all-trans-retinyl esters; 2,2′, syn- and anti-1-cis-retinal oximes; 3,3′ syn- and anti-all-trans-retinal oximes; 4, all-trans-retinol.\nMice were gavaged with the solution of inhibitor in vegetable oil (control—non-treated, RPN—retinylpalmitamide, RAN—retinylacetamide, Ret—NH2-all-trans-retinylamine), kept in dark for 16 hours, then light stimulated and kept in dark for additional 5 hours before their eyes were analyzed.\nMouse retinoid extraction and analysis—Retinoid analysis was performed under dim red light as described previously (Maeda et al., J. Neurochem 85:944-956, 2003; Van Hooser et al., J Biol Chem 277:19173-82, 2002). Mice were gavaged with retinoids as described previously (Van Hooser et al., J Biol Chem 277:19173-82, 2002)."}, "A2E formation": {"system": "A2E formation", "conditions": "in vivo; cited from earlier work"}, "11-cis-RDH": {"system": "11-cis-RDH", "conditions": "cited from earlier work"}, "RAR": {"system": "RAR", "assay": "F9-RARE-lacZ reporter cell line, β-galactosidase activity (DR5 elements)", "format": "cell-based", "conditions": "24 hours treatment, micromolar concentrations", "description": "13-cis-RA can isomerize to all-trans-RA and then to 9-cis-RA, both of which are potent ligands of the RA receptor (RAR). 9-cis-RA also binds and activates the retinoid X receptor (RXR). This contributes to the toxicity of the RAR and RXR ligands. It was investigated whether Ret-NH2 can activate these nuclear receptor using reporter-cells as described previously (20). A β-galactosidase activity assay was employed to examine if all-trans-RA, 9-cis-RA, and Ret-NH2 are agonists for these nuclear receptors.\nF9-RARE-lacZ cells express endogenous RAR and RXR and were transfected with a construct of lacZ under the control of a minimal promoter and upstream DR5 elements (1). F9-RARE-lacZ cells were treated with different doses of all-trans-RA or Ret-NH2 for 24 hours after which the cells were harvested and the β-galactosidase activity was measured using the soluble substrate o-nitrophenyl β-D-galactopyranoside. The colorless substrate was cleaved by β-galactosidase to yellow colored o-nitrophenol, whose absorbance was measured at 420 nm using a spectrophotometer. The experiment was repeated twice with similar results. The RARE reporter cell line F9-RARE-lacZ (SIL15-RA) was a kind gift from Dr. Michael Wagner (SUNY Downstate Medical Center) and Dr. Peter McCaffery (University of Massachusetts Medical School). […]"}, "CYP26A1": {"target": "T1, CYP26A1 (Homo sapiens, UniProt O43174)", "T1 construct": "expressed in transfected cells; host or cells: HEK-293", "T1 sequence (O43174 1-497)": "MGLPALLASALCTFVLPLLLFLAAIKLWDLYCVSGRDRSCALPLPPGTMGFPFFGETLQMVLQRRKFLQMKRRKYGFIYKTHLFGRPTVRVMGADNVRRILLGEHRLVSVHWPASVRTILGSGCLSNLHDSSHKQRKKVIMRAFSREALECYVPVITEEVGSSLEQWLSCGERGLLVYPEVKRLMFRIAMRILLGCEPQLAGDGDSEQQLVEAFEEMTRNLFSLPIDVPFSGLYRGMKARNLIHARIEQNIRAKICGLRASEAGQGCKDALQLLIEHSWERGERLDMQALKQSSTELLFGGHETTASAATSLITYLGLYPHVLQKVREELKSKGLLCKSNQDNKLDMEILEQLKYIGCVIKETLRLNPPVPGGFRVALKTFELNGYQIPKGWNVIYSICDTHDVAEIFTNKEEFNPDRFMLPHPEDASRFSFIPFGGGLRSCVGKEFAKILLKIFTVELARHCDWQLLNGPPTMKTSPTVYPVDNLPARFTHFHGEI", "assay": "oxidation in HEK-293 cells transfected with CYP26A1 cDNA", "format": "in vitro ADME", "description": "Next, the RA oxidation pathway was investigated. […] In addition to secretion, Ret-NH2 might be degraded first by deamination to all-trans-retinol/retinal, which was seen to increase in Ret-NH2 treated cells. […] These observations explain the long-lasting effect of RetNH2, as the amide is stored and hydrolyzed back to the free amine."}}}
{"smiles": "CC1=C(/C=C/C(C)=C/C=C/C(C)=C\\C(=O)O)C(C)(C)CCC1", "note": "[13-cis-RA, 13-cis-retinoic acid]", "values": [{"measurement": "effect on chromophore recovery at 50 mg/kg", "setting": "[1]", "result": "ineffective"}, {"measurement": "formation of A2E", "setting": "A2E formation", "result": "blocked the formation of A2E"}, {"measurement": "inhibition of 11-cis-RDH", "setting": "11-cis-RDH", "result": "inhibits 11-cis-RDH"}]}
{"smiles": "CC1=C(/C=C/C(C)=C/C=C/C(C)=C/C(=O)O)C(C)(C)CCC1", "note": "[all-trans-RA, All-trans-retinoic acid, reference compound]", "values": [{"measurement": "activation of transcription through RAR (DR5 RARE)", "setting": "RAR", "result": "activated transcription"}]}
{"smiles": "CC1=C(/C=C/C(C)=C/C=C/C(C)=C/C(=O)O)C(C)(C)CCC1", "note": "[retinoic acid, reference compound]", "values": [{"measurement": "oxidation by CYP26A1", "setting": "CYP26A1", "result": "readily oxidized"}]}
